# Measured values from patent US8410302B2, “Methoxyimino compounds and fungicide composition comprising same” (Kyung Nong Corporation, priority 2007, dated 2013).
# Like-named read-outs stand apart in the source and are kept apart here.
# Columns and labels:
# [1] = system: Pyricularia oryzae Carvara KA301; assay: whole plant or invertebrate; assay type: in vivo; settings: for RCB control value (C.V.): rice blast; for pest or weed control at 2 ppm / pest or weed control at 10 ppm / pest or weed control at 50 ppm / pest or weed control at 100 ppm: Pyricularia oryzae, read-out: RCB control value (C.V.)
# [2] = system: Botrytis cinerae; assay: Fungicidal activity against cucumber gray mold rot (CGM) disease, control value; assay type: in vivo; settings: for CGM control value (C.V.) / pest or weed control at 100 ppm: 100 ppm
# [3] = system: Phytophthora infestans; assay: whole plant or invertebrate; assay type: in vivo; settings: for TLB control value (C.V.): tomato late blight; for pest or weed control at 2 ppm / pest or weed control at 10 ppm / pest or weed control at 50 ppm / pest or weed control at 100 ppm: Phytophthora infestans, in Solanum lycopersicum, read-out: TLB control value (C.V.)
# [4] = system: Puccinia recondita; assay: Fungicidal activity against wheat leaf rust (WLR) disease, control value; assay type: in vivo; settings: for pest or weed control at 2 ppm / pest or weed control at 10 ppm / pest or weed control at 50 ppm / pest or weed control at 100 ppm: read-out: WLR control value (C.V.)
# [5] = system: Erysiphae graminis; assay: Fungicidal activity against barley powdery mildew (BPM) disease, control value; assay type: in vivo; settings: for pest or weed control at 2 ppm / pest or weed control at 10 ppm / pest or weed control at 50 ppm / pest or weed control at 100 ppm: 168 h, read-out: BPM control value (C.V.)
# [6] = system: Rhizoctonia solani AG-1; assay: Fungicidal activity against rice sheath blight (RSB) disease, control value; settings: for RSB control value (C.V.): rice sheath blight; for pest or weed control at 2 ppm / pest or weed control at 10 ppm / pest or weed control at 50 ppm / pest or weed control at 100 ppm: Rhizoctonia solani, AG1, in Oryza sativa, read-out: RSB control value (C.V.)
# [7] = Botrytis, read-out: CGM control value (C.V.)
compound,measurement,setting,value
"CO/N=C(/C(=O)OC)c1ccccc1CON=C(C)c1ccc(C=C(F)F)cc1 [Example 29, methyl-(E)-2-[[[[[2-[4-(2,2-difluorovinyl)phenyl](1-methyl)methylidene]amino]oxy]methyl]phenyl]-2-methoxyiminoacetate]",RCB control value (C.V.),[1]; 2 ppm,100%
same,RCB control value (C.V.),[1]; 10 ppm,100%
same,RCB control value (C.V.),[1]; 50 ppm,100%
same,RCB control value (C.V.),[1]; 100 ppm,100%
same,CGM control value (C.V.),[2]; cucumber gray mold rot,24%
same,TLB control value (C.V.),[3]; 2 ppm,100%
same,TLB control value (C.V.),[3]; 10 ppm,100%
same,TLB control value (C.V.),[3]; 50 ppm,100%
same,TLB control value (C.V.),[3]; 100 ppm,100%
same,WLR control value (C.V.),"[4]; 2 ppm, wheat leaf rust",100%
same,WLR control value (C.V.),"[4]; 10 ppm, wheat leaf rust",100%
same,WLR control value (C.V.),"[4]; 50 ppm, wheat leaf rust",100%
same,WLR control value (C.V.),"[4]; 100 ppm, wheat leaf rust",100%
same,BPM control value (C.V.),"[5]; 2 ppm, barley powdery mildew",15%
same,BPM control value (C.V.),"[5]; 10 ppm, barley powdery mildew",60%
same,BPM control value (C.V.),"[5]; 50 ppm, barley powdery mildew",93%
same,BPM control value (C.V.),"[5]; 100 ppm, barley powdery mildew",100%
same,RSB control value (C.V.),[6]; 100 ppm,30%
"CO/N=C(/C(=O)OC)c1ccccc1COc1c(OC)ccc(C=C(Br)Br)c1Br [Example 75, methyl-(E)-2-(2-((2-bromo-3-(2,2-dibromovinyl)-6-methoxyphenoxy)methyl)phenyl)-2-methoxyiminoacetate]",pest or weed control at 2 ppm,[1],30%
same,pest or weed control at 10 ppm,[1],90%
same,pest or weed control at 50 ppm,[1],100%
same,pest or weed control at 100 ppm,[1],100%
same,pest or weed control at 100 ppm,[2]; [7],40%
same,pest or weed control at 2 ppm,[3],70%
same,pest or weed control at 10 ppm,[3],90%
same,pest or weed control at 50 ppm,[3],98%
same,pest or weed control at 100 ppm,[3],100%
same,pest or weed control at 2 ppm,"[4]; Puccinia recondita, 2 ppm",95%
same,pest or weed control at 10 ppm,"[4]; Puccinia recondita, 10 ppm",100%
same,pest or weed control at 50 ppm,"[4]; Puccinia recondita, 50 ppm",100%
same,pest or weed control at 100 ppm,"[4]; Puccinia recondita, 100 ppm",100%
same,pest or weed control at 2 ppm,[5]; 2 ppm,92%
same,pest or weed control at 10 ppm,[5]; 10 ppm,98%
same,pest or weed control at 50 ppm,[5]; 50 ppm,100%
same,pest or weed control at 100 ppm,[5]; 100 ppm,100%
same,pest or weed control at 2 ppm,[6],65%
same,pest or weed control at 10 ppm,[6],98%
same,pest or weed control at 50 ppm,[6],100%
same,pest or weed control at 100 ppm,[6],100%
"CO/N=C(/C(=O)OC)c1ccccc1COc1cccc(C=C(Cl)Br)c1 [Example 15, methyl-(2E)-2-(2-((3-(2-bromo-2-chlorovinyl)phenoxy)methyl)phenyl)-2-methoxyiminoacetate]",pest or weed control at 2 ppm,[1],70%
same,pest or weed control at 10 ppm,[1],100%
same,pest or weed control at 50 ppm,[1],100%
same,pest or weed control at 100 ppm,[1],100%
same,pest or weed control at 100 ppm,"[2]; Botrytis, cucumber gray mold rot, read-out: CGM control value (C.V.)",50%
same,pest or weed control at 10 ppm,[3],10%
same,pest or weed control at 50 ppm,[3],90%
same,pest or weed control at 100 ppm,[3],100%
same,pest or weed control at 2 ppm,"[4]; 2 ppm, wheat leaf rust",100%
same,pest or weed control at 10 ppm,"[4]; 10 ppm, wheat leaf rust",100%
same,pest or weed control at 50 ppm,"[4]; 50 ppm, wheat leaf rust",100%
same,pest or weed control at 100 ppm,"[4]; 100 ppm, wheat leaf rust",100%
same,pest or weed control at 2 ppm,"[5]; Hordeum vulgare, 2 ppm, barley powdery mildew",15%
same,pest or weed control at 10 ppm,"[5]; Hordeum vulgare, 10 ppm, barley powdery mildew",60%
same,pest or weed control at 50 ppm,"[5]; Hordeum vulgare, 50 ppm, barley powdery mildew",93%
same,pest or weed control at 100 ppm,"[5]; Hordeum vulgare, 100 ppm, barley powdery mildew",95%
same,pest or weed control at 100 ppm,[6],10%
"CNC(=O)/C(=N/OC)c1ccccc1CON=C(C)c1ccc(C=C(Cl)Br)cc1 [Example 38, (E)-2-[[[[[2-[4-(2-bromo-2-chlorovinyl)phenyl](1-methyl)methylidene]amino]oxy]methyl]phenyl]-2-methoxyimino-N-methylacetamide]",RCB control value (C.V.),[1]; 2 ppm,100%
same,RCB control value (C.V.),[1]; 10 ppm,100%
same,RCB control value (C.V.),[1]; 50 ppm,100%
same,RCB control value (C.V.),[1]; 100 ppm,100%
same,CGM control value (C.V.),[2]; cucumber gray mold rot,65%
same,TLB control value (C.V.),[3]; 2 ppm,30%
same,TLB control value (C.V.),[3]; 10 ppm,80%
same,TLB control value (C.V.),[3]; 50 ppm,100%
same,TLB control value (C.V.),[3]; 100 ppm,100%
same,WLR control value (C.V.),"[4]; 2 ppm, wheat leaf rust",100%
same,WLR control value (C.V.),"[4]; 10 ppm, wheat leaf rust",100%
same,WLR control value (C.V.),"[4]; 50 ppm, wheat leaf rust",100%
same,WLR control value (C.V.),"[4]; 100 ppm, wheat leaf rust",100%
same,BPM control value (C.V.),"[5]; 2 ppm, barley powdery mildew",95%
same,BPM control value (C.V.),"[5]; 10 ppm, barley powdery mildew",98%
same,BPM control value (C.V.),"[5]; 50 ppm, barley powdery mildew",100%
same,BPM control value (C.V.),"[5]; 100 ppm, barley powdery mildew",100%
same,RSB control value (C.V.),[6]; 2 ppm,80%
same,RSB control value (C.V.),[6]; 10 ppm,95%
same,RSB control value (C.V.),[6]; 50 ppm,98%
same,RSB control value (C.V.),[6]; 100 ppm,100%
"CO/N=C(/C(=O)OC)c1ccccc1COc1ccc(F)cc1C=C(Br)Br [Example 79, methyl-(E)-2-(2-((2-(2,2-dibromovinyl)-4-fluorophenoxy)methyl)phenyl)-2-methoxyiminoacetate]",pest or weed control at 2 ppm,[1],80%
same,pest or weed control at 10 ppm,[1],98%
same,pest or weed control at 50 ppm,[1],100%
same,pest or weed control at 100 ppm,[1],100%
same,pest or weed control at 100 ppm,[2]; [7],40%
same,pest or weed control at 2 ppm,[3],70%
same,pest or weed control at 10 ppm,[3],90%
same,pest or weed control at 50 ppm,[3],98%
same,pest or weed control at 100 ppm,[3],100%
same,pest or weed control at 2 ppm,"[4]; Puccinia recondita, 2 ppm",95%
same,pest or weed control at 10 ppm,"[4]; Puccinia recondita, 10 ppm",100%
same,pest or weed control at 50 ppm,"[4]; Puccinia recondita, 50 ppm",100%
same,pest or weed control at 100 ppm,"[4]; Puccinia recondita, 100 ppm",100%
same,pest or weed control at 2 ppm,[5]; 2 ppm,90%
same,pest or weed control at 10 ppm,[5]; 10 ppm,100%
same,pest or weed control at 50 ppm,[5]; 50 ppm,100%
same,pest or weed control at 100 ppm,[5]; 100 ppm,100%
same,pest or weed control at 2 ppm,[6],85%
same,pest or weed control at 10 ppm,[6],98%
same,pest or weed control at 50 ppm,[6],100%
same,pest or weed control at 100 ppm,[6],100%
"CO/N=C(/C(=O)OC)c1ccccc1COc1ccc(C=C(Cl)Cl)c(Cl)c1 [Example 57, methyl-(E)-2-(2-((3-chloro-4-(2,2-dichlorovinyl)phenoxy)methyl)phenyl)-2-methoxyiminoacetate]",pest or weed control at 2 ppm,[1],90%
same,pest or weed control at 10 ppm,[1],100%
same,pest or weed control at 50 ppm,[1],100%
same,pest or weed control at 100 ppm,[1],100%
same,pest or weed control at 50 ppm,"[2]; Botrytis, 50 ppm, read-out: CGM control value (C.V.)",20%
same,pest or weed control at 100 ppm,[2]; [7],75%
same,pest or weed control at 2 ppm,[3],99%
same,pest or weed control at 10 ppm,[3],100%
same,pest or weed control at 50 ppm,[3],100%
same,pest or weed control at 100 ppm,[3],100%
same,pest or weed control at 2 ppm,"[4]; Puccinia recondita, 2 ppm",95%
same,pest or weed control at 10 ppm,"[4]; Puccinia recondita, 10 ppm",100%
same,pest or weed control at 50 ppm,"[4]; Puccinia recondita, 50 ppm",100%
same,pest or weed control at 100 ppm,"[4]; Puccinia recondita, 100 ppm",100%
same,pest or weed control at 2 ppm,[5]; 2 ppm,100%
same,pest or weed control at 10 ppm,[5]; 10 ppm,100%
same,pest or weed control at 50 ppm,[5]; 50 ppm,100%
same,pest or weed control at 100 ppm,[5]; 100 ppm,100%
same,pest or weed control at 2 ppm,[6],90%
same,pest or weed control at 10 ppm,[6],100%
same,pest or weed control at 50 ppm,[6],100%
same,pest or weed control at 100 ppm,[6],100%
"CO/N=C(/C(=O)OC)c1ccccc1COc1ccc(C=C(Br)Br)cc1C [Example 65, methyl-(E)-2-(2-((4-(2,2-dibromovinyl)-2-methylphenoxy)methyl)phenyl)-2-methoxyiminoacetate]",pest or weed control at 2 ppm,[1],100%
same,pest or weed control at 10 ppm,[1],100%
same,pest or weed control at 50 ppm,[1],100%
same,pest or weed control at 100 ppm,[1],100%
same,pest or weed control at 100 ppm,[2]; [7],35%
same,pest or weed control at 2 ppm,[3],50%
same,pest or weed control at 10 ppm,[3],80%
same,pest or weed control at 50 ppm,[3],100%
same,pest or weed control at 100 ppm,[3],100%
same,pest or weed control at 2 ppm,"[4]; Puccinia recondita, 2 ppm",100%
same,pest or weed control at 10 ppm,"[4]; Puccinia recondita, 10 ppm",100%
same,pest or weed control at 50 ppm,"[4]; Puccinia recondita, 50 ppm",100%
same,pest or weed control at 100 ppm,"[4]; Puccinia recondita, 100 ppm",100%
same,pest or weed control at 2 ppm,[5]; 2 ppm,60%
same,pest or weed control at 10 ppm,[5]; 10 ppm,95%
same,pest or weed control at 50 ppm,[5]; 50 ppm,100%
same,pest or weed control at 100 ppm,[5]; 100 ppm,100%
same,pest or weed control at 2 ppm,[6],97%
same,pest or weed control at 10 ppm,[6],100%
same,pest or weed control at 50 ppm,[6],100%
same,pest or weed control at 100 ppm,[6],100%
"CCOc1cc(C=C(Br)Br)ccc1OCc1ccccc1/C(=N\OC)C(=O)OC [Example 83, methyl-(E)-2-(2-((4-(2,2-dibromovinyl)-2-ethoxyphenoxy)methyl)phenyl)-2-methoxyiminoacetate]",pest or weed control at 2 ppm,[1],50%
same,pest or weed control at 10 ppm,[1],90%
same,pest or weed control at 50 ppm,[1],100%
same,pest or weed control at 100 ppm,[1],100%
same,pest or weed control at 100 ppm,[2]; [7],50%
same,pest or weed control at 2 ppm,[3],70%
same,pest or weed control at 10 ppm,[3],90%
same,pest or weed control at 50 ppm,[3],98%
same,pest or weed control at 100 ppm,[3],100%
same,pest or weed control at 2 ppm,"[4]; Puccinia recondita, 2 ppm",95%
same,pest or weed control at 10 ppm,"[4]; Puccinia recondita, 10 ppm",100%
same,pest or weed control at 50 ppm,"[4]; Puccinia recondita, 50 ppm",100%
same,pest or weed control at 100 ppm,"[4]; Puccinia recondita, 100 ppm",100%
same,pest or weed control at 2 ppm,[5]; 2 ppm,95%
same,pest or weed control at 10 ppm,[5]; 10 ppm,100%
same,pest or weed control at 50 ppm,[5]; 50 ppm,100%
same,pest or weed control at 100 ppm,[5]; 100 ppm,100%
same,pest or weed control at 2 ppm,[6],75%
same,pest or weed control at 10 ppm,[6],98%
same,pest or weed control at 50 ppm,[6],100%
same,pest or weed control at 100 ppm,[6],100%
